The values below come from paper PMC8359946, “Expanding the Substrate Scope of Nitrating Cytochrome P450 TxtE by Active Site Engineering of a Reductase Fusion” (Chembiochem, 2021).

Assay [1] concerns the target T1, TxtE (His6-TxtE-BM3R fusion) (Streptomyces scabiei, UniProt C9ZDC6, R59C).
T1 construct: His6-TxtE-BM3R(R59C)
The assay is described as follows: UV-Vis difference spectrum (type II); LC-MS nitration assay with purified enzyme. It counts as binding.

Assay [2] addresses T2, TxtE (His6-TxtE-BM3R fusion) (Streptomyces scabiei, UniProt C9ZDC6).
T2 construct: His6-TxtE-BM3R fusion with the full length heme-reductase linker (27 aa) from CYP102A1
The assay is described as follows: UV-Vis difference spectroscopy titration; purified-enzyme nitration assay. It is filed as binding.

Take `NCCc1c[nH]c2ccccc12` [compound 1, tryptamine]: in assay [1], the “UV-Vis difference spectrum (type II); LC-MS nitration assay with purified enzyme” value is recorded as “a similar spectrum is observed for binding of tryptamine to His6‐TxtE‐BMR3(R59C)”.

As for `N[C@@H](Cc1c[nH]c2ccccc12)C(=O)O` [L-tryptophan], the Kd (as a rule, the constant that tells how readily two partners part at equilibrium) in assay [2] stood at 84 ± 2 µM.
